Laboratory results reported in PubChem BioAssay AID2060488 (Molecular Pharmacology Branch, DTP, NCI, 2025).

Test system: 966289-007-R4-J1-PDC complex spheroid viability
Assay: Anticancer human tumor 966289-007-R4-J1-PDC patient-derived pancreatic adenocarcinoma cell line growth inhibition [GQUAD]
Details: for IC50: curve of first compound; for viability, T/C: stronger effect = lower value
Method in brief: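 Multi-cell-type spheroids of tumor cells with HUVEC and mesenchymal stem cells, treated with drug combinations. Concentrations descend in half-log steps from near clinical Cmax, or from 10 microM where Cmax is unknown; viability read-out.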

[1] = second compound 0.0316 µM, first compound 0.0316 µM
[2] = second compound 0.0316 µM, first compound 0.1 µM
[3] = second compound 0.0316 µM, first compound 0.316 µM
[4] = second compound 0.0316 µM, first compound 1 µM
[5] = second compound 0.0316 µM, first compound 3.16 µM
[6] = second compound 0.0316 µM, first compound 10 µM
[7] = second compound 0.1 µM, first compound 0.0316 µM
[8] = second compound 0.1 µM, first compound 0.1 µM
[9] = second compound 0.1 µM, first compound 0.316 µM
[10] = second compound 0.1 µM, first compound 1 µM
[11] = second compound 0.1 µM, first compound 3.16 µM
[12] = second compound 0.1 µM, first compound 10 µM
[13] = second compound 0.316 µM, first compound 0.0316 µM
[14] = second compound 0.316 µM, first compound 0.1 µM
[15] = second compound 0.316 µM, first compound 0.316 µM
[16] = second compound 0.316 µM, first compound 1 µM
[17] = second compound 0.316 µM, first compound 3.16 µM
[18] = second compound 0.316 µM, first compound 10 µM
[19] = second compound 1 µM, first compound 0.0316 µM
[20] = second compound 1 µM, first compound 0.1 µM
[21] = second compound 1 µM, first compound 0.316 µM
[22] = second compound 1 µM, first compound 1 µM
[23] = second compound 1 µM, first compound 3.16 µM
[24] = second compound 1 µM, first compound 10 µM
[25] = second compound 3.16 µM, first compound 0.0316 µM
[26] = second compound 3.16 µM, first compound 0.1 µM
[27] = second compound 3.16 µM, first compound 0.316 µM
[28] = second compound 3.16 µM, first compound 1 µM
[29] = second compound 3.16 µM, first compound 3.16 µM
[30] = second compound 3.16 µM, first compound 10 µM
[31] = second compound 10 µM, first compound 0.0316 µM
[32] = second compound 10 µM, first compound 0.1 µM
[33] = second compound 10 µM, first compound 0.316 µM
[34] = second compound 10 µM, first compound 1 µM
[35] = second compound 10 µM, first compound 3.16 µM
[36] = second compound 10 µM, first compound 10 µM
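Further: spheroids exposed to the agents for seven days before readout.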
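Wherever viability, T/C is given: percent viability relative to DMSO vehicle control wells taken as 100%.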

For `COc1cc(C2c3cc4c(cc3C(OC3OC5COC(C)OC5C(O)C3O)C3COC(=O)C23)OCO4)cc(OC)c1O` (centres undefined) + Cc1[nH]c2ccc(F)cc2c1-c1nc2c3cccnc3c3ncccc3c2[nH]1, which IC50 (second compound 0.0316 µM) is on record?
Its IC50 is 321 nM.

What about the IC50 (second compound 0.1 µM) of the same compound?
The IC50 was 273 nM.

And the IC50 (second compound 0.316 µM)?
The IC50 was 312 nM.

And the IC50 (second compound 1 µM)?
Its IC50 is 303 nM.

What about the IC50 (second compound 3.16 µM) of the same compound?
The IC50 was 252 nM.

And the IC50 (second compound 10 µM)?
The IC50 was 220 nM.

And the viability, T/C [1]?
Its viability, T/C is 107%.

And the viability, T/C [2]?
The viability, T/C was 104%.

What about the viability, T/C [3] of the same compound?
The viability, T/C was 50.5%.

And the viability, T/C [4]?
Its viability, T/C is 4.72%.

What about the viability, T/C [5] of the same compound?
Its viability, T/C is 2.07%.

And the viability, T/C [6]?
Its viability, T/C is 0.7%.

And the viability, T/C [7]?
Its viability, T/C is 107%.

And the viability, T/C [8]?
The viability, T/C was 105%.

What about the viability, T/C [9] of the same compound?
The viability, T/C was 41.7%.

What about the viability, T/C [10] of the same compound?
Its viability, T/C is 7.49%.

And the viability, T/C [11]?
Its viability, T/C is 1.48%.

And the viability, T/C [12]?
The viability, T/C was 0.65%.

And the viability, T/C [13]?
Its viability, T/C is 102%.

And the viability, T/C [14]?
Its viability, T/C is 112%.

What about the viability, T/C [15] of the same compound?
Its viability, T/C is 49.2%.

And the viability, T/C [16]?
The viability, T/C was 7.18%.

What about the viability, T/C [17] of the same compound?
Its viability, T/C is 1.57%.

And the viability, T/C [18]?
The viability, T/C was 0.55%.

What about the viability, T/C [19] of the same compound?
The viability, T/C was 99.4%.

And the viability, T/C [20]?
The viability, T/C was 110%.

And the viability, T/C [21]?
The viability, T/C was 48%.

What about the viability, T/C [22] of the same compound?
Its viability, T/C is 7.65%.

What about the viability, T/C [23] of the same compound?
The viability, T/C was 1.61%.

And the viability, T/C [24]?
The viability, T/C was 0.65%.

What about the viability, T/C [25] of the same compound?
Its viability, T/C is 108%.

And the viability, T/C [26]?
Its viability, T/C is 99.6%.

And the viability, T/C [27]?
The viability, T/C was 37.6%.

And the viability, T/C [28]?
The viability, T/C was 6.91%.

What about the viability, T/C [29] of the same compound?
The viability, T/C was 2.31%.

What about the viability, T/C [30] of the same compound?
The viability, T/C was 0.77%.

What about the viability, T/C [31] of the same compound?
The viability, T/C was 101%.

And the viability, T/C [32]?
Its viability, T/C is 97.2%.

What about the viability, T/C [33] of the same compound?
Its viability, T/C is 28.1%.

And the viability, T/C [34]?
The viability, T/C was 3.87%.

What about the viability, T/C [35] of the same compound?
Its viability, T/C is 1.57%.

What about the viability, T/C [36] of the same compound?
Its viability, T/C is 0.58%.

Which IC50 (second compound 0.0316 µM) does the source give for `COc1cccc2c1C(=O)c1c(O)c3c(c(O)c1C2=O)CC(O)(C(=O)CO)CC3OC1CC(N)C(O)C(C)O1` (centres undefined) + Cc1[nH]c2ccc(F)cc2c1-c1nc2c3cccnc3c3ncccc3c2[nH]1 here?
The IC50 was 67.3 nM.

And the IC50 (second compound 0.1 µM)?
Its IC50 is 63.6 nM.

And the IC50 (second compound 0.316 µM)?
The IC50 was 61.1 nM.

What about the IC50 (second compound 1 µM) of the same compound?
The IC50 was 61.2 nM.

What about the IC50 (second compound 3.16 µM) of the same compound?
Its IC50 is 56.5 nM.

And the IC50 (second compound 10 µM)?
Its IC50 is 52 nM.

And the viability, T/C [1]?
Its viability, T/C is 114%.

And the viability, T/C [2]?
The viability, T/C was 16.4%.

And the viability, T/C [3]?
The viability, T/C was 1.91%.

And the viability, T/C [4]?
Its viability, T/C is 0.7%.

What about the viability, T/C [5] of the same compound?
The viability, T/C was 0.21%.

And the viability, T/C [6]?
Its viability, T/C is 0.6%.

And the viability, T/C [7]?
Its viability, T/C is 104%.

What about the viability, T/C [8] of the same compound?
Its viability, T/C is 15.1%.

What about the viability, T/C [9] of the same compound?
The viability, T/C was 2.16%.

And the viability, T/C [10]?
The viability, T/C was 0.91%.

What about the viability, T/C [11] of the same compound?
The viability, T/C was 0.22%.

What about the viability, T/C [12] of the same compound?
Its viability, T/C is 0.26%.

And the viability, T/C [13]?
Its viability, T/C is 100%.

What about the viability, T/C [14] of the same compound?
The viability, T/C was 12.6%.

And the viability, T/C [15]?
Its viability, T/C is 2.39%.

What about the viability, T/C [16] of the same compound?
The viability, T/C was 0.78%.

What about the viability, T/C [17] of the same compound?
The viability, T/C was 0.23%.

What about the viability, T/C [18] of the same compound?
Its viability, T/C is 0.33%.

What about the viability, T/C [19] of the same compound?
The viability, T/C was 97.1%.

What about the viability, T/C [20] of the same compound?
The viability, T/C was 14.7%.

What about the viability, T/C [21] of the same compound?
The viability, T/C was 2.52%.

What about the viability, T/C [22] of the same compound?
Its viability, T/C is 0.71%.

What about the viability, T/C [23] of the same compound?
Its viability, T/C is 0.32%.

And the viability, T/C [24]?
The viability, T/C was 0.5%.

And the viability, T/C [25]?
Its viability, T/C is 87.9%.

What about the viability, T/C [26] of the same compound?
Its viability, T/C is 12.9%.

What about the viability, T/C [27] of the same compound?
The viability, T/C was 2.39%.

What about the viability, T/C [28] of the same compound?
Its viability, T/C is 0.86%.

What about the viability, T/C [29] of the same compound?
Its viability, T/C is 0.29%.

What about the viability, T/C [30] of the same compound?
Its viability, T/C is 0.56%.

What about the viability, T/C [31] of the same compound?
The viability, T/C was 79.9%.

What about the viability, T/C [32] of the same compound?
Its viability, T/C is 10.9%.

And the viability, T/C [33]?
The viability, T/C was 1.72%.

And the viability, T/C [34]?
The viability, T/C was 0.61%.

What about the viability, T/C [35] of the same compound?
Its viability, T/C is 0.4%.

What about the viability, T/C [36] of the same compound?
Its viability, T/C is 0.57%.
